Article PMC9667936, “Functional mapping of the 14-3-3 hub protein as a guide to design 14-3-3 molecular glues” (Chemical Science, 2022)
Where a SMILES comes first, the peptide text is derived from it. [ ]: non-standard residue; d: D form. The star is where a group is joined. ξ: configuration not given here. FITC = O=C1OC2(c3ccc(O)cc3Oc3cc(O)ccc32)c2ccc(NC(=S)*)cc21; Phe(4-NO2) = N[C@@H](Cc1ccc([N+](=O)[O-])cc1)C(=O)O; ξAla(4-thiazolyl) = NC(Cc1cscn1)C(=O)O; pS = N[C@@H](COP(=O)(O)O)C(=O)O; β3hS = N[C@@H](CO)CC(=O)O; βAla = NCCC(=O)O

Molecular target: T1, 14-3-3γ/ChREBP (Homo sapiens, UniProt P61981+Q9NP71)
T1 construct: made in house; host or cells: E. coli NiCo21 (DE3) for 14-3-3 gamma; ChREBP is a synthetic peptide
T1 sequence (P61981 1-247): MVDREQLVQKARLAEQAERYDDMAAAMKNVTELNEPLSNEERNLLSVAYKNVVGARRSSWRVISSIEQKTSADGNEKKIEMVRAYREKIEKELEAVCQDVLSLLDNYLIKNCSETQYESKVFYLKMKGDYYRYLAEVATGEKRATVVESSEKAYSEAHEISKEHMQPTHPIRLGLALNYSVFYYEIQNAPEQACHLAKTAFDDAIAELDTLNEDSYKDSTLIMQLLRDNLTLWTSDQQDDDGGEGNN
T1 sequence (Q9NP71 118-142 partner limits assumed): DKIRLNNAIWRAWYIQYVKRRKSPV
Assay: FA ChREBP titration to FITC-labelled peptide with or without 14-3-3 (ternary complex formation)
Type: binding
Details: for ternary complex formation (anisotropy) on ChREBP titration in presence of 14-3-3γ: ChREBP titrated to preformed complex of 14-3-3γ and FITC-labelled peptide, Fig. 5d
Procedure: performed twice per cycle with 20% v/v piperidine in N,N-dimethylformamide (DMF) for five minutes.
Fmoc-protected amino acids were mixed with 9 equivalents HBTU (0.38 M in DMF) and 15 equivalents of DIPEA, and coupled to the resin for 30 minutes (except pS, which is coupled for 60 minutes).
Peptides 1 and 2e-i were labeled with fluorescein via a 5-(-fluorenylmehyloxycarbonyl-amino)-3-oxapentanoic acid (O1-Pen) linker using 5 equivalents of FITC and 7.5 equivalents of DIPEA reacting overnight with continuous agitation. Removal of protecting groups and cleavage of the resin was performed by incubation in a mixture of trifluoroacetic acid (TFA), H2O, and triisopropylsilane (TIS) (96.5:2.5:1) for 2 hours with continuous agitation, followed by precipitation in an excess of ice-cold […]
Peptides 1 and 2a-d were FITC labeled via a three-step approach. The free amine on the N-terminus was protected as follows: to a solution of di-tert-butyl decarbonate (10 eq, 400 mM) in DCM was added DIEA (10 eq), and solution was added to the resin. Coupling was allowed to proceed for 1 h. At this time, resin was washed 3x with DCM and coupling was repeated as described. […]
All peptides were purified using preparative HP-LC. […] The purity of the samples was assessed using a UV detector at 254 […]
Fluorescence anisotropy (FA) - binary binding studies: 14-3-3γ was titrated in a 2-fold dilution series (starting at 100 or 400 µM 14-3-3γ) to 10 nM of fluorescein-labeled peptide in FA buffer (10 mM HEPES pH 7.4, 150 mM NaCl, 0.1% (v/v) Tween20, 0.1% (w/v) BSA). […]
Measurements were performed directly after plate preparation, using a Tecan Infinite F500 plate reader at room temperature (lex: 485 ± 20 nm; lem: 535 ± 25 nm; mirror: Dichroic 510; flashes: 20; integration time: 50 ms; settle time: 0 ms; gain: optimal; and Z-position: calculated from well). […] All data were analyzed using GraphPad Prism (7.00) for Windows and fitted using a four-parameter logistic model (4PL). Each measurement was performed in three independent experiments, average and standard deviations were calculated in Excel […]

## C[C@H](NC(=O)[C@H](CCCCN)NC(=O)[C@H](Cc1ccc([N+](=O)[O-])cc1)NC(=O)CCNC(=O)C[C@H](CO)NC(=O)[C@H](Cc1ccc([N+](=O)[O-])cc1)NC(=O)[C@@H](N)COP(=O)(O)O)C(=O)N[C@@H](CCCCNC(=S)Nc1ccc2c(c1)C(=O)OC21c2ccc(O)cc2Oc2cc(O)ccc21)C(N)=O [2d] (H-[pS][Phe(4-NO2)][β3hS][βAla][Phe(4-NO2)]KAK(FITC)-NH2)
  ternary complex formation (anisotropy) on ChREBP titration in presence of 14-3-3γ: dose-dependent increase in 14-3-3/ChREBP/2d complex formation
No 14-3-3 present, Fig. 5e
  increase in anisotropy on ChREBP titration to FITC-labelled peptide alone: not observed

## C[C@H](NC(=O)[C@H](CCCCN)NC(=O)[C@H](Cc1ccc([N+](=O)[O-])cc1)NC(=O)CCNC(=O)C[C@H](CO)NC(=O)[C@H](Cc1ccc([N+](=O)[O-])cc1)NC(=O)[C@H](COP(=O)(O)O)NC(=O)C(N)Cc1cscn1)C(=O)N[C@@H](CCCCNC(=S)Nc1ccc2c(c1)C(=O)OC21c2ccc(O)cc2Oc2cc(O)ccc21)C(N)=O (stereo partly drawn) [2c] (H-[ξAla(4-thiazolyl)][pS][Phe(4-NO2)][β3hS][βAla][Phe(4-NO2)]KAK(FITC)-NH2)
  ternary complex formation (anisotropy) on ChREBP titration in presence of 14-3-3γ: lack of increase in anisotropy values
